PubChem BioAssay (NCI)
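Assay format: 96-well plates, 48-hour exposure. The concentration for full growth arrest is given as TGI.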

How the values were obtained:
Experiment in all cases: growth of human tumour cells (NCI), 48 h
[1] = tested on: RPMI-8226 leukemia
[2] = tested on: 786-0 renal
[3] = tested on: LOX IMVI melanoma
[4] = tested on: SR leukemia
[5] = tested on: A549 NSCLC
[6] = tested on: MOLT-4 leukemia
[7] = tested on: NCI-H226 lung
[8] = tested on: HCT-116 colon
[9] = tested on: SF-268 CNS
[10] = tested on: PC-3 prostate
[11] = tested on: M14 melanoma
[12] = tested on: MALME-3M melanoma
[13] = tested on: ACHN renal
[14] = tested on: SN12C renal
[15] = tested on: MDA-MB-435
[16] = tested on: CAKI-1 renal
[17] = tested on: MDA-N
[18] = tested on: MDA-MB-231 breast
[19] = tested on: KM12 colon
[20] = tested on: OVCAR-4 ovarian
[21] = tested on: RXF 393 renal
[22] = tested on: HOP-62 NSCLC
[23] = tested on: SK-MEL-2 melanoma
[24] = tested on: BT-549 breast
[25] = tested on: MCF7 breast
[26] = tested on: SNB-75 CNS
[27] = tested on: NCI/ADR-RES ovarian
[28] = tested on: UACC-62 melanoma
[29] = tested on: T-47D breast
[30] = tested on: HS 578T breast
[31] = tested on: OVCAR-5 ovarian
[32] = tested on: SNB-19 CNS
[33] = tested on: UO-31 renal
[34] = tested on: K-562 leukemia
[35] = tested on: SF-539 CNS
[36] = tested on: HCT-15 colon
[37] = tested on: HOP-92 NSCLC
[38] = tested on: SK-MEL-5 melanoma
[39] = tested on: SW-620 colon
[40] = tested on: A498 renal
[41] = tested on: NCI-H23 lung
[42] = tested on: UACC-257 melanoma
[43] = tested on: HT29 colon
[44] = tested on: OVCAR-8 ovarian
[45] = tested on: CCRF-CEM leukemia
[46] = tested on: SK-MEL-28 melanoma
[47] = tested on: EKVX NSCLC
[48] = tested on: SF-295 CNS
[49] = tested on: OVCAR-3 ovarian
[50] = tested on: SK-OV-3 ovarian
[51] = tested on: HCC-2998 colon
[52] = tested on: DU-145 prostate
[53] = tested on: COLO 205 colon
[54] = tested on: NCI-H522 lung
[55] = tested on: TK-10 renal
[56] = tested on: NCI-H460 lung
[57] = tested on: U251 CNS
[58] = tested on: HL-60(TB) leukemia
[59] = tested on: IGROV1 ovarian

COc1ccccc1N1C(=O)CC(=O)N(C(=O)CCCCCCCCC(=O)N2C(=O)CC(=O)N(c3ccccc3OC)C2=S)C1=S
TGI [1]: > 100 µM
TGI [2]: > 100 µM
TGI [3]: > 100 µM
TGI [4]: > 100 µM
TGI [5]: > 100 µM
TGI [6]: > 100 µM
TGI [7]: > 100 µM
TGI [8]: > 100 µM
TGI [9]: > 100 µM
TGI [10]: > 100 µM
TGI [11]: > 100 µM
TGI [12]: > 100 µM
TGI [13]: > 100 µM
TGI [14]: > 100 µM
TGI [15]: > 100 µM
TGI [16]: > 100 µM
TGI [17]: > 100 µM
TGI [18]: > 100 µM
TGI [19]: > 100 µM
TGI [20]: > 100 µM
TGI [21]: > 100 µM
TGI [22]: > 100 µM
TGI [23]: > 100 µM
TGI [24]: > 100 µM
TGI [25]: > 100 µM
TGI [26]: > 100 µM
TGI [27]: > 100 µM
TGI [28]: > 100 µM
TGI [29]: > 100 µM
TGI [30]: > 100 µM
TGI [31]: > 100 µM
TGI [32]: > 100 µM
TGI [33]: > 100 µM
TGI [34]: > 100 µM
TGI [35]: > 100 µM
TGI [36]: > 100 µM
TGI [37]: > 100 µM
TGI [38]: > 100 µM
TGI [39]: > 100 µM
TGI [40]: > 100 µM
TGI [41]: > 100 µM
TGI [42]: > 100 µM
TGI [43]: > 100 µM
TGI [44]: > 100 µM
TGI [45]: > 100 µM
TGI [46]: > 100 µM
TGI [47]: > 100 µM
TGI [48]: > 100 µM
TGI [49]: > 100 µM
TGI [50]: > 100 µM
TGI [51]: > 100 µM
TGI [52]: > 100 µM
TGI [53]: > 100 µM
TGI [54]: > 100 µM
TGI [55]: > 100 µM
TGI [56]: > 100 µM
TGI [57]: > 100 µM

CC(=O)Oc1cc(S(=O)(=O)Nc2n[nH]c(N)n2)c(S)cc1Cl
TGI [1]: > 100 µM
TGI [2]: > 100 µM
TGI [3]: > 100 µM
TGI [4]: > 100 µM
TGI [5]: > 100 µM
TGI [6]: > 100 µM
TGI [8]: > 100 µM
TGI [10]: > 100 µM
TGI [11]: > 100 µM
TGI [12]: > 100 µM
TGI [13]: > 100 µM
TGI [14]: > 100 µM
TGI [15]: > 100 µM
TGI [16]: > 100 µM
TGI [17]: > 100 µM
TGI [18]: > 100 µM
TGI [19]: > 100 µM
TGI [20]: > 100 µM
TGI [22]: > 100 µM
TGI [23]: > 100 µM
TGI [24]: > 100 µM
TGI [25]: > 100 µM
TGI [27]: > 100 µM
TGI [28]: > 100 µM
TGI [29]: > 100 µM
TGI [30]: > 100 µM
TGI [58]: > 100 µM
TGI [31]: > 100 µM
TGI [32]: > 100 µM
TGI [33]: > 100 µM
TGI [34]: > 100 µM
TGI [35]: > 100 µM
TGI [36]: > 100 µM
TGI [37]: > 100 µM
TGI [38]: > 100 µM
TGI [39]: > 100 µM
TGI [59]: > 100 µM
TGI [40]: > 100 µM
TGI [41]: > 100 µM
TGI [42]: > 100 µM
TGI [43]: > 100 µM
TGI [44]: > 100 µM
TGI [45]: > 100 µM
TGI [46]: > 100 µM
TGI [47]: > 100 µM
TGI [48]: > 100 µM
TGI [49]: > 100 µM
TGI [51]: > 100 µM
TGI [52]: > 100 µM
TGI [53]: > 100 µM
TGI [54]: > 100 µM
TGI [55]: > 100 µM
TGI [56]: > 100 µM
TGI [57]: > 100 µM

C=C(CC)C[C@@H]1C[C@]2(C(=O)OC)c3[nH]c4ccccc4c3CCN2C1=O
TGI [2]: 33.5 µM
TGI [3]: 33.5 µM
TGI [4]: > 100 µM
TGI [5]: 32.4 µM
TGI [6]: > 100 µM
TGI [8]: 29.6 µM
TGI [9]: 51.9 µM
TGI [10]: 42.8 µM
TGI [11]: 36.5 µM
TGI [12]: 72.5 µM
TGI [13]: 76 µM
TGI [14]: 41.3 µM
TGI [15]: 43.7 µM
TGI [16]: 48.6 µM
TGI [17]: 35.5 µM
TGI [18]: 54.7 µM
TGI [19]: 58.9 µM
TGI [20]: > 100 µM
TGI [21]: 27.7 µM
TGI [22]: 34 µM
TGI [23]: 33.1 µM
TGI [24]: 43.7 µM
TGI [25]: 47.2 µM
TGI [26]: 66.2 µM
TGI [27]: 51.1 µM
TGI [28]: 36.2 µM
TGI [29]: > 100 µM
TGI [30]: 41.1 µM
TGI [58]: 82.5 µM
TGI [31]: 56 µM
TGI [32]: > 100 µM
TGI [33]: 38.6 µM
TGI [34]: 58.1 µM
TGI [35]: 30.9 µM
TGI [36]: 34.5 µM
TGI [37]: 38.1 µM
TGI [38]: 31.3 µM
TGI [39]: 35.9 µM
TGI [59]: 58 µM
TGI [40]: 41.1 µM
TGI [41]: 49.7 µM
TGI [42]: 41.9 µM
TGI [43]: 42 µM
TGI [44]: > 100 µM
TGI [46]: 39.9 µM
TGI [47]: 85.5 µM
TGI [48]: 31.1 µM
TGI [49]: 27.9 µM
TGI [50]: 63.9 µM
TGI [51]: 34.1 µM
TGI [52]: > 100 µM
TGI [53]: > 100 µM
TGI [54]: 36.7 µM
TGI [55]: > 100 µM
TGI [56]: 53.6 µM
TGI [57]: 40.8 µM

O=C1C(NS(=O)(=O)c2ccccc2)=C(N(Cc2ccccc2)Cc2ccccc2)C(=O)c2ccccc21
TGI [1]: 72.7 µM
TGI [2]: > 100 µM
TGI [3]: > 100 µM
TGI [4]: > 100 µM
TGI [5]: > 100 µM
TGI [6]: > 100 µM
TGI [7]: > 100 µM
TGI [8]: > 100 µM
TGI [9]: > 100 µM
TGI [10]: > 100 µM
TGI [11]: > 100 µM
TGI [12]: 0.584 µM
TGI [13]: > 100 µM
TGI [14]: > 100 µM
TGI [15]: > 100 µM
TGI [16]: > 100 µM
TGI [17]: > 100 µM
TGI [18]: > 100 µM
TGI [19]: > 100 µM
TGI [20]: 59 µM
TGI [21]: 67.8 µM
TGI [22]: > 100 µM
TGI [23]: 45.8 µM
TGI [24]: > 100 µM
TGI [25]: > 100 µM
TGI [26]: > 100 µM
TGI [27]: > 100 µM
TGI [28]: > 100 µM
TGI [29]: > 100 µM
TGI [30]: > 100 µM
TGI [58]: 66.1 µM
TGI [31]: > 100 µM
TGI [32]: > 100 µM
TGI [33]: 51.3 µM
TGI [34]: > 100 µM
TGI [35]: > 100 µM
TGI [36]: > 100 µM
TGI [37]: > 100 µM
TGI [38]: > 100 µM
TGI [39]: > 100 µM
TGI [59]: > 100 µM
TGI [41]: 73.2 µM
TGI [42]: > 100 µM
TGI [43]: > 100 µM
TGI [44]: > 100 µM
TGI [45]: 77.4 µM
TGI [46]: > 100 µM
TGI [47]: > 100 µM
TGI [48]: > 100 µM
TGI [49]: > 100 µM
TGI [50]: > 100 µM
TGI [52]: > 100 µM
TGI [53]: > 100 µM
TGI [55]: > 100 µM
TGI [56]: > 100 µM
TGI [57]: > 100 µM
